We go through 21 compounds from patent EP4417607A1, “HETEROCYCLIC COMPOUND AS SOS1 INHIBITOR AND USES THEREOF” (Nanjing Zaiming Pharmaceutical Co., Ltd., priority 2021, dated 2023).

Experiment [1] relates to p-ERK pathway in H358 cells. Put plainly: p-ERK pathway inhibition in H358 cells (Advanced phospho-ERK (Thr202/Tyr204) cellular kit, HTRF). It is filed as cell-based. To be noted: Homo sapiens, NCI-H358, 1 h compound incubation. In short, it runs like this: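 Serum-starved H358 cells (50000/well, overnight) treated with compound for 1 h at 37 °C, then lysed; phospho-ERK (Thr202/Tyr204) read by HTRF (665/620 nm ratio). Cell-free wells set 100% inhibition, untreated cells 0%; IC50 fitted from 8 concentrations by four-parameter curve.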
For orientation: Time-resolved FRET reads energy transfer from a long-lived donor to a nearby acceptor.

The next experiment deals with H358 cells. Description: H358 cell proliferation inhibition (CellTiter-Glo luminescent cell viability assay). It is filed as cell-based. To be noted: Homo sapiens, NCI-H358, 168 h, 7 days. In short, it runs like this:
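H358 cells seeded at 3000 cells/well in RPMI1640/10% FBS, treated with compound for 7 days at 37 °C/5% CO2. Viability read by CellTiter-Glo 3D luminescence, normalised to cell-free (100%) and compound-free (0%) controls; IC50 fitted from 8 concentrations by four-parameter curve.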

As to `Cc1nc(N[C@H](C)c2cccc(C(F)F)c2F)c2cn(C3(CF)CC3)c(=O)c(N3CCO[C@@H](C)C3)c2n1` [Example 43, 4-(((R)-1-(3-(difluoromethyl)-2-fluorophenyl)ethyl)amino)-6-(1-(fluoromethyl)cyclopropyl)-2-methyl-8-((S)-2-methylmorpholine)pyrido[4,3-d]pyrimidine-7(6H)-one], the IC50 in experiment [1] was 49.2 nM; in the experiment with H358 cells, 50.8 nM.
The corresponding values for `Cc1nc(N[C@H](C)c2cccc(C(F)F)c2F)c2cn(C3(CF)CC3)c(=O)c(N3[C@@H](C)COC[C@@H]3C)c2n1` [Example 127, 4-(((R)-1-(3-(difluoromethyl)-2-fluorophenyl)ethyl)amino)-8-((3S,5S)-3,5-dimethylmorpholinyl)-6-(1-(fluoromethyl)cyclopropyl)-2-methylpyrido[4,3-d]pyrimidine-7(6H)-one] are 72.5 nM and 90 nM.
On the same counts, the results for `Cc1nc(N[C@H](C)c2cccc(C(F)F)c2F)c2cn(C3(CF)CC3)c(=O)c(N3CCC(C)(O)CC3)c2n1` [Example 45, (R)-4-((1-(3-(difluoromethyl)-2-fluorophenyl)ethyl)amino)-6-(1-(fluoromethyl)cyclopropyl)-8-(4-hydroxy-4-methylpiperidin-1-yl)-2-methylpyrido[4,3-d]pyrimidine-7(6H)-one] are 18.9 nM and 31.4 nM.
On the same counts, the results for `Cc1nc(N[C@H](C)c2cccc(C#N)c2C)c2cn(C3(CF)CC3)c(=O)c(-c3ccc(C#N)cc3)c2n1` [Example 71, (R)-3-(1-((8-(4-cyanophenyl)-6-(1-(fluoromethyl)cyclopropyl)-2-methyl-7-oxo-6,7-dihydropyrido[4,3-d]pyrimidin-4-yl)amino)ethyl)-2-methylbenzonitrile] are 156 nM and 114 nM.
In the case of `Cc1nc(N[C@H](C)c2cccc(C(F)F)c2F)c2cn(C3(CF)CC3)c(=O)c(C3(O)CCN(C4COC4)CC3)c2n1` [Example 145, (R)-4-((1-(3-(difluoromethyl)-2-fluorophenyl)ethyl)amino)-6-(1-(fluoromethyl)cyclopropyl)-8-(4-hydroxy-1-(oxetan-3-yl)piperidin-4-yl)-2-methylpyrido[4,3-d]pyrimidine-7(6H)-one], the figures for the IC50 (in experiment [1]; in the experiment on H358 cells) were 138 nM and 64.6 nM, respectively.
The corresponding values for `Cc1nc(N[C@H](C)c2cccc(C#N)c2C)c2cn(N3CCOCC3)c(=O)c(N3CCN(C)CC3)c2n1` [Example 76, (R)-2-methyl-3-(1-((2-methyl-8-(4-methylpiperazin-1-yl)-6-morpholine-7-oxo-6,7-dihydropyrido[4,3-d]pyrimidin-4-yl)amino)ethyl)benzonitrile] are 113 nM and 108 nM.
On the same counts, the results for `CCN(CC)c1c(=O)n(C2(CF)CC2)cc2c(N[C@H](C)c3cccc(C(F)F)c3F)nc(C)nc12` [Example 96, (R)-8-(diethylamino)-4-((1-(3-(difluoromethyl)-2-fluorophenyl)ethyl)amino)-6-(1-(fluoromethyl)cyclopropyl)-2-methylpyrido[4,3-d]pyrimidine-7(6H)-one] are 95.5 nM and 50.5 nM.
The corresponding values for `Cc1nc(N[C@H](C)c2cccc(C(F)F)c2F)c2cn(N3CCOCC3)c(=O)c(N3CCN(C)CC3)c2n1` [Example 69, (R)-4-((1-(3-(difluoromethyl)-2-fluorophenyl)ethyl)amino)-2-methyl-8-(4-methylpiperazin-1-yl)-6-morpholinepyrido[4,3-d]pyrimidine-7(6H)-one] are 38.7 nM and 22.9 nM.
`[2H]C([2H])([2H])[C@@H](Nc1nc(C)nc2c(N3CCOC[C@@H]3C)c(=O)n(C3(CF)CC3)cc12)c1cccc(C(F)F)c1F` [Example 113, 4-(((R)-1-(3-(difluoromethyl)-2-fluorophenyl)ethyl-2,2,2-d3)amino)-6-(1-(fluoromethyl)cyclopropyl)-2-methyl-8-((S)-3-methylmorpholine)pyrido[4,3-d]pyrimidine-7(6H)-one]: the figures for the IC50 (in experiment [1]; with H358 cells) were 70 nM and 15.6 nM, respectively.
The corresponding values for `Cc1nc(N[C@H](C)c2cccc(C(F)F)c2F)c2cn(C3(CF)CC3)c(=O)c(N3CCN(CC4(C)COC4)CC3)c2n1` [Example 109, (R)-4-((1-(3-(difluoromethyl)-2-fluorophenyl)ethyl)amino)-6-(1-(fluoromethyl)cyclopropyl)-2-methyl-8-(4-((3-methyloxetan-3-yl)methyl)piperazin-1-yl)pyrido[4,3-d]pyrimidine-7(6H)-one] are 35.5 nM and 23.7 nM.
Regarding `Cc1nc(N[C@H](C)c2cccc(C(F)F)c2F)c2cn(C3(CF)CC3)c(=O)c(N3CCN(CC4CC4)CC3)c2n1` [Example 132, (R)-8-(4-(cyclopropylmethyl)piperazin-1-yl)-4-((1-(3-(difluoromethyl)-2-fluorophenyl)ethyl)amino)-6-(1-(fluoromethyl)cyclopropyl)-2-methylpyrido[4,3-d]pyrimidine-7(6H)-one], the IC50 was 84.3 nM in experiment [1] and 37.3 nM with H358 cells.
On the same counts, the results for `Cc1nc(N[C@H](C)c2cccc(C(F)F)c2F)c2cn(C3(CF)CC3)c(=O)c(NC3COC3)c2n1` [Example 61, (R)-4-((1-(3-(difluoromethyl)-2-fluorophenyl)ethyl)amino)-6-(1-(fluoromethyl)cyclopropyl)-2-methyl-8-(oxetan-3-ylamino)pyrido[4,3-d]pyrimidine-7(6H)-one] are 16.4 nM and 22.8 nM.
`[2H]C([2H])([2H])Oc1c(=O)n(C2(CF)CC2)cc2c(N[C@H](C)c3cccc(S(F)(F)(F)(F)F)c3)nc(C)nc12` [Example 31, (R)-6-(1-(fluoromethyl)cyclopropyl)-8-(methoxy-d3)-2-methyl-4-((1-(3-(pentafluoro-λ^6-sulfanyl)phenyl)ethyl)amino)pyrido[4,3-d]pyrimidine-7(6H)-one]: the IC50 came out at 73 nM in experiment [1] and 133 nM in the experiment with H358 cells.
Consider `Cc1nc(N[C@H](C)c2cccc(C#N)c2C)c2cn(N3CCOCC3)c(=O)c(N3CCOCC3)c2n1` [Example 108, (R)-2-methyl-3-(1-((2-methyl-6,8-dimorpholine-7-oxo-6,7-dihydropyrido[4,3-d]pyrimidin-4-yl)amino)ethyl)benzonitrile], for which the 50% inhibitory concentration (IC50) was determined as 61.3 nM in experiment [1] and 76.4 nM in the experiment on H358 cells.
The corresponding values for `Cc1nc(N[C@H](C)c2cccc(C(F)F)c2F)c2cn(C3(CF)CC3)c(=O)c(N3CCN(C4COC4)CC3)c2n1` [Example 95, (R)-4-((1-(3-(difluoromethyl)-2-fluorophenyl)ethyl)amino)-6-(1-(fluoromethyl)cydopropyt)-2-methyt-8-(4-(oxetan-3-yt)piperazin-l-yt)pyrido[4,3-d]pyrimidine-7(6H)-one] are 30.8 nM and 10.2 nM.
The corresponding values for `Cc1nc(N[C@H](C)c2cccc(C(F)F)c2F)c2cn(C3(CF)CC3)c(=O)c(N3CCOC[C@@H]3CO)c2n1` [Example 135, 4-(((R)-1-(3-(difluoromethyl)-2-fluorophenyl)ethyl)amino)-6-(1-(fluoromethyl)cyclopropyl)-8-((S)-3-(hydroxymethyl)morpholinyl)-2-methylpyrido[4,3-d]pyrimidine-7(6H)-one] are 59 nM and 65.2 nM.
As to `CC(=O)Nc1c(=O)n(C2(CF)CC2)cc2c(N[C@H](C)c3cccc(C(F)F)c3F)nc(C)nc12` [Example 83, (R)-N-(4-((1-(3-(difluoromethyl)-2-fluorophenyl)ethyl)amino)-6-(1-(fluoromethyl)cyclopropyl)-2-methyl-7-oxo-6,7-dihydropyrido[4,3-d]pyrimidine-8-yl)acetamide], the IC50 in experiment [1] was 92 nM; in the experiment with H358 cells, 90.9 nM.
On the same counts, the results for `Cc1nc(N[C@H](C)c2cccc(C(F)F)c2F)c2cn(C3(CF)CC3)c(=O)c(N3CCOC[C@@H]3CF)c2n1` [Example 136, 4-(((R)-1-(3-(difluoromethyl)-2-fluorophenyl)ethyl)amino)-6-(1-(fluoromethyl)cyclopropyl)-8-((R)-3-(fluoromethyl)morpholinyl)-2-methylpyrido[4,3-d]pyrimidine-7(6H)-one] are 80.2 nM and 42.3 nM.
On the same counts, the results for `Cc1nc(N[C@H](C)c2cccc(C(F)F)c2F)c2cn(C3(CF)CC3)c(=O)c(N3CCN(CC4COC4)CC3)c2n1` [Example 133, (R)-4-((1-(3-(difluoromethyl)-2-fluorophenyl)ethyl)amino)-6-(1-(fluoromethyl)cyclopropyl)-2-methyl-8-(4-(oxetan-3-ylmethyl)piperazin-1-yl)pyrido[4,3-d]pyrimidine-7(6H)-one] are 70 nM and 34.9 nM.
On the same counts, the results for `Cc1nc(N[C@H](C)c2cccc(C(F)F)c2F)c2cn(C3(CF)CC3)c(=O)c(N3CCO[C@H](C)C3)c2n1` [Example 42, 4-(((R)-1-(3-(difluoromethyl)-2-fluorophenyl)ethyl)amino)-6-(1-(fluoromethyl)cyclopropyl)-2-methyl-8-((R)-2-methylmorpholine)pyrido[4,3-d]pyrimidine-7(6H)-one] are 41.8 nM and 50.5 nM.
Take `Cc1nc(N[C@H](C)c2cccc(C(F)F)c2F)c2cn(C3(CF)CC3)c(=O)c(N3CCOCC3(C)C)c2n1` [Example 52, (R)-4-((1-(3-(difluoromethyl)-2-fluorophenyl)ethyl)amino)-8-(3,3-dimethylmorpholine) -6-(1-(fluoromethyl)cyclopropyl)-2-methylpyrido[4,3-d]pyrimidine-7(6H)-one]: the concentration for half-maximal inhibition (IC50) in experiment [1] was determined as 41.4 nM; in the experiment on H358 cells, 26.5 nM.

One may read the IC50 as the concentration needed to halve the response being measured.
